What was measured:
Assay in all cases: relative viability (nuclei count vs DMSO), 5 days (fraction); higher = more cells survive
[1] = compound: C1/C(=C\C2=CC=CS2)/C(=O)/C(=C/C3=CC=CS3)/C1 + Cc1nc(Nc2ncc(C(=O)Nc3c(C)cccc3Cl)s2)cc(N2CCN(CCO)CC2)n1 [Dasatinib] (partner 0.075 µM)
Summary of the method: (§1)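 Dosing by pin tool came one day after lung cancer cell lines were seeded in 1536-well plates, using either one drug or a fixed anchor-drug dose plus five library-drug doses (not always all listed) in √10 steps. After 5 days, nuclei were counted on 4× images. Relative viability is treated-well nuclei count divided by vehicle-well nuclei count, and values are medians of duplicate plates.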

[2] = compound: C1=CC(=CC=C1C2=CC(=C(S2)NC(=O)N)C(=O)N)F [TPCA-1] + COc1cccc2cc(-c3nc([C@H]4CC[C@H](C(=O)O)CC4)n4ncnc(N)c34)[nH]c12 [OSI-027] (partner 0.5 µM)
Summary of the method: as §1

[3] = compound: C1/C(=C\C2=CC=CS2)/C(=O)/C(=C/C3=CC=CS3)/C1 + CCNC(=O)c1noc(-c2cc(C(C)C)c(O)cc2O)c1-c1ccc(CN2CCOCC2)cc1 [Luminespib] (partner 0.01 µM)
Summary of the method: as §1

[4] = compound: C[C@]12O[C@H](C[C@]1(O)CO)n1c3ccccc3c3c4c(c5c6ccccc6n2c5c31)CNC4=O [Lestaurtinib] + O=C(CCCCCCC(=O)Nc1ccccc1)NO [Vorinostat] (partner 1 µM)
Summary of the method: as §1

Cell Line	relative viability ([1]; first compound 0.2 µM)	relative viability ([1]; first compound 0.6325 µM)	relative viability ([1]; first compound 2 µM)	relative viability ([1]; first compound 6.325 µM)	relative viability ([1]; first compound 20 µM)	relative viability ([2]; first compound 0.04 µM)	relative viability ([2]; first compound 0.1265 µM)	relative viability ([2]; first compound 0.4 µM)	relative viability ([2]; first compound 1.265 µM)	relative viability ([2]; first compound 4 µM)	relative viability ([3]; first compound 0.2 µM)	relative viability ([3]; first compound 0.6325 µM)	relative viability ([3]; first compound 2 µM)	relative viability ([3]; first compound 6.325 µM)	relative viability ([3]; first compound 20 µM)	relative viability ([4]; first compound 0.005 µM)	relative viability ([4]; first compound 0.01581 µM)	relative viability ([4]; first compound 0.05 µM)	relative viability ([4]; first compound 0.1581 µM)	relative viability ([4]; first compound 0.5 µM)
NCI-H1944	0.225	0.202	0.217	0.225	0.19	0.482	0.398	0.416	0.368	0.318	0.762	0.731	0.674	0.695	0.626	0.556	0.521	0.693	0.408	0.205
NCI-H1975	0.445	0.328		0.206	0.387	0.836	0.737	0.676	0.633	0.295	0.313	0.163	0.194	0.312	0.177	0.755	0.735	0.617	0.578	0.382
NCI-H1993	0.545	0.48	0.616	0.457	0.649	0.544	0.524	0.521	0.536	0.556	0.727	0.765	0.726	0.763	1.78	0.823	0.808	0.754	0.455	0.485
NCI-H2009	0.282	0.296	0.306	0.269	0.311	0.773	0.647	0.623	0.406	0.327	1.05	1.05	0.941	0.741	1.03	0.782	0.759	0.665	0.689	0.501
NCI-H2023	0.597	0.581	0.673	0.513	0.502	0.552	0.335	0.364	0.32	0.187	0.864	0.642	0.735	0.515	0.677	0.639	0.445	0.577	0.371	0.117
NCI-H2085	0.233	0.258	0.221	0.237	0.236	0.978	0.689	0.731	0.462	0.354	0.446	0.433	0.453	0.41	0.503	0.741	0.812	0.869	0.751	0.661
NCI-H2087	0.942	0.879	1.03	0.655	0.878	0.554	0.444	0.537	0.414	0.207	0.215	0.161	0.177	0.133	0.158	0.815	0.652	0.667	0.474	0.373
NCI-H2126	0.624	0.585	0.597	0.532	0.577	0.623	0.961	0.786	0.685	0.616	0.952	0.84	0.963	0.804	0.867	0.805	0.886	0.693	0.599	0.465

From the supplement of paper PMC10307832
